Data on ten compounds can be found in BindingDB's records for PubMed 36793429 (Therachem Research Medilab, 2023).

Structures are written as SMILES.

Broadly, the IC50 is the concentration that gives 50% inhibition. A low value points to higher potency.

For the assay, the target named is Coagulation factor XI (Homo sapiens) (UniProt P03951). As to the kind of experiment: Inhibition of human factor 11a using GPR-AFC as substrate preincubated for 30 mins followed by substrate addition and measured after 60 mins by fluorescence based analysis.
Sequence of Coagulation factor XI (Homo sapiens) (P03951 whole entry, looked up): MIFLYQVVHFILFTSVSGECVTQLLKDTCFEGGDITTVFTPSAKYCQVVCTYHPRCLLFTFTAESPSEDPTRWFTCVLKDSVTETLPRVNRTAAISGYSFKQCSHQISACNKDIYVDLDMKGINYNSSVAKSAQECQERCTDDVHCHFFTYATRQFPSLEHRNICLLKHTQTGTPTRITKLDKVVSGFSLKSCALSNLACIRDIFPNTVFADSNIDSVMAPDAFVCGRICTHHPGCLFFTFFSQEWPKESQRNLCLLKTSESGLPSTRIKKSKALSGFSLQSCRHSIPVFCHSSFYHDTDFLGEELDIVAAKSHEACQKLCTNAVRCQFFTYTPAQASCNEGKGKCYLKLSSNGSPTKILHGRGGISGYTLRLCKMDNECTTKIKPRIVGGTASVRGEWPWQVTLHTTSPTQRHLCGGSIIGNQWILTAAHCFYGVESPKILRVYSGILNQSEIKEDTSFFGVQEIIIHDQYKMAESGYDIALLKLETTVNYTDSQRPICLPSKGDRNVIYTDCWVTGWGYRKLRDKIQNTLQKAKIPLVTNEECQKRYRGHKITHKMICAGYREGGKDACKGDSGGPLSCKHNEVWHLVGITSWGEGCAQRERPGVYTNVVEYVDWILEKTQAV
As for `C[C@H]1CCN(c2ccc(CNC(=O)c3cncc(N4CC[C@]5(C4)OC(=O)Nc4ccc(Cl)c(F)c45)n3)cn2)C1`, half-maximal inhibition (IC50) required 10 µM.
Then `C[C@H]1CCN(c2ccc(CNC(=O)c3cnnc(N4CC[C@]5(C4)OC(=O)Nc4ccc(Cl)c(F)c45)c3)cn2)C1`, with 7.44 µM; and `CN1CCCC1c1ccc(CNC(=O)c2cnnc(N3CC[C@]4(C3)OC(=O)Nc3ccc(Cl)c(F)c34)c2)cc1` (stereo not given in full), with 10 µM; and `O=C1Nc2ccc(Cl)c(F)c2[C@]2(CCN(c3cncc(C(=O)NCc4ccc(Cn5ccccc5=O)nc4)n3)C2)O1`, with 10 µM.
As for `O=C1Nc2ccc(Cl)c(F)c2[C@]2(CCN(c3cncc(C(=O)NCc4ccc(Cn5ccccc5=O)nc4)c3)C2)O1`, it took 10 µM to reach half-maximal inhibition (IC50).
Then `Cc1cnn(Cc2ccc(CNC(=O)c3cncc(N4CC[C@]5(C4)OC(=O)Nc4ccc(Cl)c(F)c45)c3)cn2)c1`, with 10 µM.
On to `Cc1cnn(Cc2ccc(CNC(=O)c3cnnc(N4CC[C@]5(C4)OC(=O)Nc4ccc(Cl)c(F)c45)c3)cc2)c1`, for which 10 µM corresponded to half-maximal inhibition (IC50).
For `O=C1Nc2ccc(Cl)c(F)c2[C@]2(CCN(c3cncc(C(=O)NCc4ccc(N5CCC5)nc4)n3)C2)O1`, the IC50 was 10 µM.
`CN1CCN(c2ccc(CNC(=O)c3cncc(N4CC[C@]5(C4)OC(=O)Nc4ccc(Cl)c(F)c45)n3)cn2)CC1` registered a half-inhibitory concentration (IC50) of 10 µM.
As to `N#CC1(F)CN(Cc2ccc(CNC(=O)c3cnnc(N4CC[C@]5(C4)OC(=O)Nc4ccc(Cl)c(F)c45)c3)cc2)C1`, the IC50 amounted to 10 µM.
